In PubChem BioAssay AID651650 (Sanford-Burnham Center for Chemical Genomics, 2012) one finds IC50 data, which are given here for 34 molecules.

Molecules are shown by their SMILES. Active and inactive are the calls of the source.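 The calls were made as follows: active = mean IC50 below 20 µM in each of the two panels, so potent in both; inactive = the rest.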 Some results are limits rather than exact numbers.

The target in the assay is Neuropilin-1 (Homo sapiens) (UniProt O14786). Put plainly: NRP-1 b1b2 CendR peptide binding inhibitors, dose response, biochemical, FP and AlphaScreen panel (AID 651650). The settings on record: NRP-1 b1b2 / RPARPAR peptide binding, FP or AlphaScreen. Background: Bead proximity is the source of the signal in Alpha formats.
Chain of Neuropilin-1 (Homo sapiens) (O14786 whole entry, looked up): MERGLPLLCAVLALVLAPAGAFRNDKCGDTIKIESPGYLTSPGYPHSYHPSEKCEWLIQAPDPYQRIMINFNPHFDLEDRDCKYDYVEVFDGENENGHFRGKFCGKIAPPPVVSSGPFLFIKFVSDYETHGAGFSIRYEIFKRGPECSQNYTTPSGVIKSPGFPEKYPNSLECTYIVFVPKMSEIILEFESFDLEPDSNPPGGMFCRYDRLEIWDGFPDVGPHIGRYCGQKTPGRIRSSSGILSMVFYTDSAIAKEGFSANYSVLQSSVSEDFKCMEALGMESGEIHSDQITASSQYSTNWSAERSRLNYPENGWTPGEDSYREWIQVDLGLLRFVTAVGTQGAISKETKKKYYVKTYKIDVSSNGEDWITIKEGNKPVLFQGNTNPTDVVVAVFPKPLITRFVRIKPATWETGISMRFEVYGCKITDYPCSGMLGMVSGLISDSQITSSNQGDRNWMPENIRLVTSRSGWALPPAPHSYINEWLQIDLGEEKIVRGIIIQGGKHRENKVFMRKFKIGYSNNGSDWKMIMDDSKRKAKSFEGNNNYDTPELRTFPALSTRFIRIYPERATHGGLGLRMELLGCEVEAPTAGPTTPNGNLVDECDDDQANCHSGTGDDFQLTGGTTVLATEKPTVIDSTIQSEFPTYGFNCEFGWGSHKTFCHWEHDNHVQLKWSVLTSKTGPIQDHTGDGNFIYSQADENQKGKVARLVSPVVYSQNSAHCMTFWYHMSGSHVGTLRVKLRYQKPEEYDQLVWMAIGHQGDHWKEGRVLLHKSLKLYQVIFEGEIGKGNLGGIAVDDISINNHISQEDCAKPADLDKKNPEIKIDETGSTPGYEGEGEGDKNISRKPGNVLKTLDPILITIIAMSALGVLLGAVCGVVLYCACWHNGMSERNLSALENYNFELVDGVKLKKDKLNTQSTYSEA
Where [1] appears, read: AlphaScreen, run 1, individual panel run IC50.
Setting [2] is: FP, run 1, individual panel run IC50.
The mark [3] stands for this setting: FP, run 2, individual panel run IC50.

A word on the IC50: it is the concentration at which inhibition is half-maximal. Take `COc1ccc(C2CC(C(F)(F)F)n3nc(C(=O)O)c(Cl)c3N2)cc1OC` (stereo not given): the IC50 runs as follows: (AlphaScreen, mean of runs) > 100 µM (inactive); under setting [1], over 100 µM; under setting [2], 53.3 µM; under setting [3], 61.7 µM. Also, the IC50 result (FP, mean of runs) was “inactive”.

`O=C(c1ccco1)N1CCN(C(=O)c2ccccc2OC(=O)C23CC4CC(CC(C4)C2)C3)CC1`: the 50% inhibitory concentration (IC50) was 0.965 µM (AlphaScreen, mean of runs); 0.965 µM under setting [1]; > 95 µM (inactive) (FP, mean of runs); over 95 µM under setting [2]; over 95 µM under setting [3].

Consider `CCOc1ccc(N2C(=O)CC(N3CCN(c4ccc(Cl)cc4)CC3)C2=O)cc1` (stereo not given), for which the IC50 result (AlphaScreen, mean of runs) was “inactive”. The IC50 is, setting by setting: under setting [1], 22.2 µM; (FP, mean of runs) > 95 µM (inactive); under setting [2], over 95 µM; under setting [3], over 95 µM.

Turning to `COC(=O)C1N[C@@H]([C@@H](NC(=O)COc2ccccc2)C(=O)NCc2ccccc2)SC1(C)C` (stereo not given in full), the IC50 reads like this: (AlphaScreen, mean of runs) > 100 µM (inactive); under setting [1], over 100 µM; (FP, mean of runs) > 95 µM (inactive); under setting [2], over 95 µM; under setting [3], over 95 µM.

As for `O=C(O)c1cccc(N2C(=O)c3cc([N+](=O)[O-])cc4cc([N+](=O)[O-])cc(c34)C2=O)c1`, the IC50 (AlphaScreen, mean of runs) was > 100 µM (inactive); the half-inhibitory concentration (IC50) under setting [1] was over 100 µM; the IC50 (FP, mean of runs) was > 95 µM (inactive); the 50% inhibitory concentration (IC50) under setting [2] was over 95 µM; the IC50 under setting [3] was over 95 µM.

Regarding `CCOC(=O)N1CCN(C(=O)Nc2ccc3nc(C)c(C)nc3c2)CC1`, the IC50 runs as follows: (AlphaScreen, mean of runs) > 100 µM (inactive); under setting [1], over 100 µM; (FP, mean of runs) > 95 µM (inactive); under setting [2], over 95 µM; under setting [3], over 95 µM.

For the molecule `CN(c1ccc(OCC(=O)OCC(=O)Nc2ccc([N+](=O)[O-])cc2)cc1)S(=O)(=O)c1cccs1`, the IC50 entry (AlphaScreen, mean of runs) was “inactive”. In addition, the IC50 reads like this: under setting [1], 44.1 µM; (FP, mean of runs) > 95 µM (inactive); under setting [2], over 95 µM; under setting [3], over 95 µM.

For `Cc1cc(=O)n2nc(N3CCCC(C(=O)N4CCOCC4)C3)sc2n1` (stereo not given), the IC50 (AlphaScreen, mean of runs) was > 100 µM (inactive); the IC50 under setting [1] was over 100 µM; the IC50 (FP, mean of runs) is > 95 µM (inactive); the IC50 under setting [2] was over 95 µM; the IC50 under setting [3] is over 95 µM.

Take `Cc1cc2cc(CNC(=O)c3ccc(S(=O)(=O)N4CCOCC4)cc3)ccc2n1C`: the IC50 is > 100 µM (inactive) (AlphaScreen, mean of runs); over 100 µM under setting [1]; > 95 µM (inactive) (FP, mean of runs); over 95 µM under setting [2]; over 95 µM under setting [3].

In the case of `COCc1cccc(-c2csc(C(C)(O)c3ccccc3)n2)c1` (stereo not given), the IC50 is > 100 µM (inactive) (AlphaScreen, mean of runs); over 100 µM under setting [1]; > 95 µM (inactive) (FP, mean of runs); over 95 µM under setting [2]; over 95 µM under setting [3].

With `Cc1ccc(Cl)cc1N1CCN(C(=O)c2cccc3c(=O)c(C)c(-c4ccccc4)oc23)CC1`, the IC50 reads like this: (AlphaScreen, mean of runs) > 100 µM (inactive); under setting [1], over 100 µM; under setting [2], 26.6 µM; under setting [3], over 95 µM. Besides, the IC50 entry (FP, mean of runs) is “inactive”.

As to `COc1ccc(C(CNc2ccc(S(=O)(=O)N3CCCC3)cc2[N+](=O)[O-])N2CCCC2)cc1` (stereo not given), the IC50 reads like this: (AlphaScreen, mean of runs) 12.2 µM; under setting [1], 12.2 µM; (FP, mean of runs) > 95 µM (inactive); under setting [2], over 95 µM; under setting [3], over 95 µM.

On to `CCC(=NCCc1ccccc1)c1c(O)n(C2CCCCC2)c(=O)[nH]c1=O`, for which the IC50 runs as follows: (AlphaScreen, mean of runs) > 100 µM (inactive); under setting [1], over 100 µM; (FP, mean of runs) > 95 µM (inactive); under setting [2], over 95 µM; under setting [3], over 95 µM.

For the molecule `Cc1ccccc1Nc1nc(N)nc(COC(=O)CC2CC3CCC2C3)n1` (stereo not given), the IC50 by setting is: (AlphaScreen, mean of runs) > 100 µM (inactive); under setting [1], over 100 µM; (FP, mean of runs) > 95 µM (inactive); under setting [2], over 95 µM; under setting [3], over 95 µM.

With `COc1cccc(OCCNC(=O)Nc2cc(F)c(F)cc2Cl)c1`, the IC50 is, setting by setting: (AlphaScreen, mean of runs) > 100 µM (inactive); under setting [1], over 100 µM; (FP, mean of runs) > 95 µM (inactive); under setting [2], over 95 µM; under setting [3], over 95 µM.

Regarding `Cc1ccc(C(=O)Nc2nnc([C@H]3C[C@H](O)[C@@H](CO)O3)s2)cc1`, the IC50 by setting is: (AlphaScreen, mean of runs) > 100 µM (inactive); under setting [1], over 100 µM; (FP, mean of runs) > 95 µM (inactive); under setting [2], over 95 µM; under setting [3], over 95 µM.

`Cc1c(CC(=O)O)c(=O)oc2cc(OCc3ccc(F)cc3Cl)ccc12`: the IC50 runs as follows: (AlphaScreen, mean of runs) > 100 µM (inactive); under setting [1], over 100 µM; (FP, mean of runs) > 95 µM (inactive); under setting [2], over 95 µM; under setting [3], over 95 µM.

On to `CCC1CCCCN1C(=S)Nc1ccc(OC(F)F)cc1` (stereo not given), for which, for the setting “AlphaScreen, mean of runs”, the IC50 result was “inactive”. Besides, the IC50 was 32.8 µM under setting [1]; > 95 µM (inactive) (FP, mean of runs); over 95 µM under setting [2]; over 95 µM under setting [3].

Regarding `O=C1CCN(Cc2ccccc2)S(=O)(=O)c2ccccc21`, the IC50 is, setting by setting: (AlphaScreen, mean of runs) > 100 µM (inactive); under setting [1], over 100 µM; (FP, mean of runs) > 95 µM (inactive); under setting [2], over 95 µM; under setting [3], over 95 µM.

`CN(C)Cc1cc(C(F)(F)F)ccc1C(O)(c1ccccc1)c1ccccc1`: the IC50 by setting is: (AlphaScreen, mean of runs) > 100 µM (inactive); under setting [1], over 100 µM; (FP, mean of runs) > 95 µM (inactive); under setting [2], over 95 µM; under setting [3], over 95 µM.

For the molecule `Cc1cc(N/C(=N/S(=O)(=O)c2cc(F)ccc2F)c2ccccc2)n(-c2ccccc2)n1`, the IC50 was > 100 µM (inactive) (AlphaScreen, mean of runs); over 100 µM under setting [1]; > 95 µM (inactive) (FP, mean of runs); over 95 µM under setting [2]; over 95 µM under setting [3].

Take `Cc1ccc(OCC(=O)Nc2ccc(C)c(S(=O)(=O)N3CCCCCC3)c2)c([N+](=O)[O-])n1`: the IC50 was > 100 µM (inactive) (AlphaScreen, mean of runs); over 100 µM under setting [1]; > 95 µM (inactive) (FP, mean of runs); over 95 µM under setting [2]; over 95 µM under setting [3].

On to `COCCNC(=O)c1cc(-c2ccccc2)nn1CC1CC(c2cccc([N+](=O)[O-])c2)=NO1` (stereo not given), for which the IC50 (AlphaScreen, mean of runs) is > 100 µM (inactive); the IC50 under setting [1] was over 100 µM; the IC50 (FP, mean of runs) was > 95 µM (inactive); the IC50 under setting [2] is over 95 µM; the IC50 under setting [3] was over 95 µM.

For the molecule `O=C(Nc1cccc(S(=O)(=O)N2CCCCC2)c1)c1ccc([N+](=O)[O-])o1`, the IC50 is > 100 µM (inactive) (AlphaScreen, mean of runs); over 100 µM under setting [1]; > 95 µM (inactive) (FP, mean of runs); over 95 µM under setting [2]; over 95 µM under setting [3].

As for `Cc1ccc2c(c1)C(c1ccncc1)=NNC(c1ccc(F)cc1)=N2`, the IC50 by setting is: (AlphaScreen, mean of runs) > 100 µM (inactive); under setting [1], over 100 µM; (FP, mean of runs) > 95 µM (inactive); under setting [2], over 95 µM; under setting [3], over 95 µM.

Consider `NNc1ncnc2c1cnn2-c1ccccc1`, for which the IC50 reads like this: (AlphaScreen, mean of runs) > 100 µM (inactive); under setting [1], over 100 µM; (FP, mean of runs) > 95 µM (inactive); under setting [2], over 95 µM; under setting [3], over 95 µM.

Regarding `Cn1c(=NC(=O)COc2ccccc2)sc2ccccc21`, the IC50 is, setting by setting: (AlphaScreen, mean of runs) > 100 µM (inactive); under setting [1], over 100 µM; (FP, mean of runs) > 95 µM (inactive); under setting [2], over 95 µM; under setting [3], over 95 µM.

In the case of `Cc1ccc(S(=O)(=O)NCC(=O)N(c2ccccc2)C(C(=O)NCc2ccccc2)c2ccco2)cc1` (stereo not given), the IC50 is > 100 µM (inactive) (AlphaScreen, mean of runs); over 100 µM under setting [1]; > 95 µM (inactive) (FP, mean of runs); over 95 µM under setting [2]; over 95 µM under setting [3].

For `Nc1ccc(C(=O)Nc2ccc(Nc3ccncc3)cc2)c([N+](=O)[O-])c1`, the IC50 is 2.27 µM (AlphaScreen, mean of runs); 2.27 µM under setting [1]; > 95 µM (inactive) (FP, mean of runs); over 95 µM under setting [2]; over 95 µM under setting [3].

On to `Cc1onc(-c2ccccc2)c1C(=O)Nc1c(C)n(C)n(-c2ccccc2)c1=O`, for which the IC50 was > 100 µM (inactive) (AlphaScreen, mean of runs); over 100 µM under setting [1]; > 95 µM (inactive) (FP, mean of runs); over 95 µM under setting [2]; over 95 µM under setting [3].

Take `COc1ccc(CCNC(=O)c2ccc(Cl)c(S(=O)(=O)N(C)c3ccccc3)c2)cc1`: the IC50 (AlphaScreen, mean of runs) was > 100 µM (inactive); the IC50 under setting [1] is over 100 µM; the IC50 (FP, mean of runs) was > 95 µM (inactive); the IC50 under setting [2] is over 95 µM; the IC50 under setting [3] was over 95 µM.

Consider `COc1ccc(C(=O)COC(=O)C(CCSC)NS(=O)(=O)c2ccc(Cl)cc2)cc1` (stereo not given), for which the IC50 is, setting by setting: (AlphaScreen, mean of runs) > 100 µM (inactive); under setting [1], over 100 µM; (FP, mean of runs) > 95 µM (inactive); under setting [2], over 95 µM; under setting [3], over 95 µM.

Turning to `FC(F)(F)c1cc(C(F)(F)F)c2ccc(Oc3ccccc3)nc2n1`, the IC50 by setting is: (AlphaScreen, mean of runs) > 100 µM (inactive); under setting [1], over 100 µM; (FP, mean of runs) > 95 µM (inactive); under setting [2], over 95 µM; under setting [3], over 95 µM.

Take `CC(=O)NCCNc1nc(NC(C)C)nc2ccsc12`: the IC50 reads like this: (AlphaScreen, mean of runs) > 100 µM (inactive); under setting [1], over 100 µM; (FP, mean of runs) > 95 µM (inactive); under setting [2], over 95 µM; under setting [3], over 95 µM.
